What was measured:
Caspase-1 (Mus musculus) = target: T1, Caspase-1 (Mus musculus) (UniProt P29452); assay: Inhibitory activity against murine caspase-1
T1 sequence (whole entry): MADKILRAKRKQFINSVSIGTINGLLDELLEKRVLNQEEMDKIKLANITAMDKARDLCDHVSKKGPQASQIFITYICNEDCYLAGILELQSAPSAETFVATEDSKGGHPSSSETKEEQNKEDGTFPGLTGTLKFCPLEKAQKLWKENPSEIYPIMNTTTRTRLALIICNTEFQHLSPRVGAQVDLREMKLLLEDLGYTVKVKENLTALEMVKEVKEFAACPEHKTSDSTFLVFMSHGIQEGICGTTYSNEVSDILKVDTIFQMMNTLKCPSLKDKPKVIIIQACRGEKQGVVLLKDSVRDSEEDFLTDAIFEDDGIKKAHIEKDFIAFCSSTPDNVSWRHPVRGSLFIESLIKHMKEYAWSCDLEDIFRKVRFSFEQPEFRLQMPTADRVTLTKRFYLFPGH

Caspase-3 = target: T2, Caspase-3 (Homo sapiens, UniProt P42574); assay: Binding affinity against caspase-3 (Csp-3)
T2 sequence (P42574 whole entry): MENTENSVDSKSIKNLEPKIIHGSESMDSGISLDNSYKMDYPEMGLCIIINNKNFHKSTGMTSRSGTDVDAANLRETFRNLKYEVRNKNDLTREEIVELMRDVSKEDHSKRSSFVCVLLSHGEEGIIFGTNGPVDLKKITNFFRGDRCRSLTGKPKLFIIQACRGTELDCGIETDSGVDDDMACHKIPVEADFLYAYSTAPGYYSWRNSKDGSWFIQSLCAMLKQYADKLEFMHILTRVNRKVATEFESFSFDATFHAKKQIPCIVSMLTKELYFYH

Homo sapiens = organism: Homo sapiens; assay: Cellular assay in an inflammation model measuring IL1-beta secretion from isolated human monocytes induced with Staph A; type: functional
Caspase-3 (Homo sapiens) = target: T3, Caspase-3 (Homo sapiens) (UniProt P42574); assay: Inhibitory activity against caspase-3 (Csp-3)
T3 sequence (whole entry): T2 sequence (P42574 whole entry)

Caspase-1 = target: T4, Caspase-1 (Mus musculus, UniProt P29452); assay: Binding affinity against Murine caspase-1 (mCsp-1)
T4 sequence (P29452 whole entry): T1 sequence (whole entry)

[1] = (§1) Cellular assay in a model of neuronal apoptosis involving cortical neurons exposed to concanavalin A; type: functional
Jurkat = assay: Cellular assay in a Fas-induced model of apoptosis in Jurkat cells; type: functional, cell-based; settings: Homo sapiens
Caspase-8 (Homo sapiens) = Caspase-8 (Homo sapiens) (UniProt Q14790); assay: Inhibitory activity against caspase-8 (Csp-8)
[2] = as §1; type: functional; remark: listed apart in the source
Caspase-6 (Homo sapiens) [3] = target: T5, Caspase-6 (Homo sapiens) (UniProt P55212); assay: Inhibitory activity against caspase-6 (Csp-6)
T5 sequence (whole entry): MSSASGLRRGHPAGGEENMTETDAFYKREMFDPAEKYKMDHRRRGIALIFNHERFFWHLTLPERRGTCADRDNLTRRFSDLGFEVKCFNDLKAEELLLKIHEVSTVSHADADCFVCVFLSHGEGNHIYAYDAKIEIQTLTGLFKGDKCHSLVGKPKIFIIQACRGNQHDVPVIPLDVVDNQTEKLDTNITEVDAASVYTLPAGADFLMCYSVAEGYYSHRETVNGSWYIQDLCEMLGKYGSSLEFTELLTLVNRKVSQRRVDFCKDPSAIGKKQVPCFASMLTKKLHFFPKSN

Caspase-6 (Homo sapiens) [4] = target: T5, Caspase-6 (Homo sapiens); assay: Inhibitory activity against Caspase-6 (Csp-6); type: functional

Chain of Caspase-8 (Homo sapiens) (Q14790 217-374 limits assumed): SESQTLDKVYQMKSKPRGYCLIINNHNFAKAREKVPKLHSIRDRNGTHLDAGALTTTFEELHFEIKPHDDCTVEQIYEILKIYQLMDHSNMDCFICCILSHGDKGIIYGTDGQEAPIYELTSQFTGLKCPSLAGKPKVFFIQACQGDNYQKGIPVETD
Chain of Caspase-8 (Homo sapiens) (Q14790 385-479 limits assumed): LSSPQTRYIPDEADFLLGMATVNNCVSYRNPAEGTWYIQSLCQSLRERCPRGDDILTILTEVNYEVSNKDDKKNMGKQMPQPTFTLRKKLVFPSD

Structure (SMILES)	k3/Ki (Caspase-1 (Mus musculus))	Ki (Caspase-3)	IC50 (Homo sapiens)	k3/Ki (Caspase-3 (Homo sapiens))	Ki (Caspase-1)	IC50 [1]	IC50 (Jurkat)	k3/Ki (Caspase-8 (Homo sapiens))	IC50 [2]	k3/Ki (Caspase-6 (Homo sapiens) [3])	k3/Ki (Caspase-6 (Homo sapiens) [4])
CC(C)[C@H](NC(=O)COc1cccc2ccccc12)C(=O)N[C@@H](CC(=O)O)C(=O)COc1cccc2ccccc12	354000 M⁻¹ s⁻¹	7.1 nM	19 µM	1.96e+06 M⁻¹ s⁻¹	70 nM	2.65 µM	> 100 µM				
CC(C)[C@H](NC(=O)COc1cccc2ccccc12)C(=O)N[C@@H](CC(=O)O)C(=O)COc1ccccc1	3630 M⁻¹ s⁻¹		11.2 µM	19200 M⁻¹ s⁻¹			14 µM	4260 M⁻¹ s⁻¹	38 µM	2400 M⁻¹ s⁻¹	
CC(C)[C@H](NC(=O)COc1cccc2ccccc12)C(=O)N[C@@H](CC(=O)O)C(=O)COc1ccc2ccccc2c1	263 M⁻¹ s⁻¹	90 nM	15.9 µM	7520 M⁻¹ s⁻¹	3170 nM	> 50 µM	> 100 µM				
CC(C)[C@H](NC(=O)COc1cccc2ccccc12)C(=O)N[C@@H](CC(=O)O)C(=O)COc1cccc(F)c1	2730 M⁻¹ s⁻¹		12 µM	17800 M⁻¹ s⁻¹		> 50 µM	> 100 µM	461 M⁻¹ s⁻¹		48 M⁻¹ s⁻¹	
CC(C)[C@H](NC(=O)COc1cccc2ccccc12)C(=O)N[C@@H](CC(=O)O)C(=O)COc1c(F)c(F)cc(F)c1F	77500 M⁻¹ s⁻¹		6.25 µM	268000 M⁻¹ s⁻¹		2.17 µM	4.5 µM	30200 M⁻¹ s⁻¹		78900 M⁻¹ s⁻¹	
CC(C)[C@H](NC(=O)COc1cccc2ccccc12)C(=O)N[C@@H](CC(=O)O)C(=O)COc1c(F)c(F)c(-c2c(F)c(F)c(F)c(F)c2F)c(F)c1F	6680 M⁻¹ s⁻¹		40 µM	52100 M⁻¹ s⁻¹		> 50 µM	20 µM	10400 M⁻¹ s⁻¹		27000 M⁻¹ s⁻¹	
CC(C)[C@H](NC(=O)COc1cccc2ccccc12)C(=O)N[C@@H](CC(=O)O)C(=O)COc1c(F)cccc1F	53900 M⁻¹ s⁻¹		> 100 µM	200000 M⁻¹ s⁻¹		2.4 µM	2.04 µM	9080 M⁻¹ s⁻¹		9980 M⁻¹ s⁻¹	
CC(C)[C@H](NC(=O)COc1cccc2ccccc12)C(=O)N[C@@H](CC(=O)O)C(=O)COc1ccccc1C(F)(F)F	5630 M⁻¹ s⁻¹		17.3 µM	20000 M⁻¹ s⁻¹		> 50 µM	> 100 µM	75 M⁻¹ s⁻¹		494 M⁻¹ s⁻¹	
CC(C)[C@H](NC(=O)COc1cccc2ccccc12)C(=O)N[C@@H](CC(=O)O)C(=O)COc1ccc([N+](=O)[O-])cc1F	12300 M⁻¹ s⁻¹		15.8 µM	36500 M⁻¹ s⁻¹		6.2 µM	30.3 µM	1850 M⁻¹ s⁻¹		1770 M⁻¹ s⁻¹	
CC(C)[C@H](NC(=O)COc1cccc2ccccc12)C(=O)N[C@@H](CC(=O)O)C(=O)COc1ccc(-c2ccccc2)cc1	1550 M⁻¹ s⁻¹	100 nM	38.7 µM	9990 M⁻¹ s⁻¹	2680 nM	> 50 µM	87.9 µM	1310 M⁻¹ s⁻¹		270 M⁻¹ s⁻¹	
CC(C)[C@H](NC(=O)COc1cccc2ccccc12)C(=O)N[C@@H](CC(=O)O)C(=O)COc1cc(F)ccc1F	12100 M⁻¹ s⁻¹		19.7 µM	49000 M⁻¹ s⁻¹		4.85 µM	> 100 µM	483 M⁻¹ s⁻¹		1330 M⁻¹ s⁻¹	
CC(C)[C@H](NC(=O)COc1cccc2ccccc12)C(=O)N[C@@H](CC(=O)O)C(=O)COC(=O)c1c(Cl)cccc1Cl	52100 M⁻¹ s⁻¹		11.5 µM	725000 M⁻¹ s⁻¹		2.15 µM	10.6 µM	17000 M⁻¹ s⁻¹		56900 M⁻¹ s⁻¹	
CC(C)[C@H](NC(=O)COc1cccc2ccccc12)C(=O)N[C@@H](CC(=O)O)C(=O)CF	129000 M⁻¹ s⁻¹		0.95 µM	207000 M⁻¹ s⁻¹		3.05 µM	0.24 µM	71700 M⁻¹ s⁻¹			36800 M⁻¹ s⁻¹
CC(C)[C@H](NC(=O)COc1cccc2ccccc12)C(=O)N[C@@H](CC(=O)O)C(=O)COc1ccc(Oc2ccccc2)cc1	1900 M⁻¹ s⁻¹		19 µM	9520 M⁻¹ s⁻¹		> 50 µM	12.7 µM	668 M⁻¹ s⁻¹		370 M⁻¹ s⁻¹	
CC(C)[C@H](NC(=O)COc1cccc2ccccc12)C(=O)N[C@@H](CC(=O)O)C(=O)COc1ccc(Oc2ccc(C(F)(F)F)cc2)cc1	1540 M⁻¹ s⁻¹		24.9 µM	6930 M⁻¹ s⁻¹		> 50 µM	9.3 µM	1120 M⁻¹ s⁻¹		625 M⁻¹ s⁻¹	
